Values of other authors, collected in US20180179476A1, “SOLVENT COMPOSITIONS FOR USE AS HEPTANE REPLACEMENTS” (TBF ENVIRONMENTAL TECHNOLOGY INC., priority 2015, published 2018).

SMILES: COC(C)=O [Methyl acetate]
- stability (in the presence of strong aqueous bases or aqueous acids): not stable
- solubility in water (room temperature): 25%
